# Values of other authors as cited in article PMC11477967, “Review of the Structural Characteristics and Biological Activities of Tricholoma Secondary Metabolites (2018–2023)” (Molecules, 2024).
# Assays:
# [1] = tested on: nitric oxide (NO) production in lipopolysaccharide (LPS)-induced RAW264.7 macrophages; conditions: for IC50: LPS-induced RAW264.7 macrophages; for Bioactivities: Anti-inflammatory activity: Table 1 summary
# SMMC-7721 = tested on: SMMC-7721; parameters: method as in PMID 29758519, PMID 32534274
# SW480 = tested on: SW480; parameters: method as in PMID 29758519, PMID 32534274
# human tumor cell lines = tested on: human tumor cell lines; parameters: method as in PMID 29758519, PMID 32534274, PMID 26186257; conditions: Table 1 summary
# MCF-7 [2] = tested on: MCF-7
# A549 = tested on: A549; parameters: method as in doi:10.1177/1934578X1801300901; conditions: said to surpass shikonin
# Hep G2 = tested on: Hep G2; parameters: method as in doi:10.1177/1934578X1801300901; conditions: said to surpass shikonin
# Caki-1 = tested on: Caki-1; parameters: method as in doi:10.1177/1934578X1801300901
# MCF-7 [3] = tested on: MCF-7; parameters: method as in doi:10.1177/1934578X1801300901
# WISH = tested on: WISH; parameters: method as in doi:10.1177/1934578X1801300901
# human cancer cell lines = conditions: for Bioactivities: Cytotoxic against human cancer cell lines: Table 1 summary
# bacteria = tested on: bacteria; parameters: method as in PMID 32534274, PMID 26186257, PMID 34604687, PMID 28794307; conditions: Table 1 summary
compound,measurement,setting,value
"CC(C)[C@@H](C)/C=C/[C@@H](C)[C@@H](CC(=O)O)[C@@]1(C)CCC2=C(C1=O)[C@H](O)[C@@H]1O[C@@]13C[C@@H](O)CC[C@]23C [Compound 46, tricholosterol A]",IC50,[1],27.6 µM
same,Bioactivities: Anti-inflammatory activity,[1],Anti-inflammatory activity
"CC(C)[C@@H](C)/C=C/[C@@H](C)[C@H]1C[C@H](O)C2=C3C(=O)C=C4C[C@@H](O)CC[C@]4(C)[C@H]3CC[C@@]21C [Compound 32, 3β,15α-dihydroxyl-(22E,24R)-ergosta-5,8(14),22-trien-7-one]",IC50,SMMC-7721,< 40 µM
same,IC50,SW480,< 40 µM
same,Bioactivities: Anti-cancer activity,human tumor cell lines,Anti-cancer activity
same,IC50,HL-60,< 40 µM
same,IC50,A-549,< 40 µM
same,IC50,MCF-7 [2],< 40 µM
"C=C1CCC(CCC2CCC3(OC2)OC2(O)CCC3(C)OC2(C)C)C(C)(C)C1C(O)C=C1C(=O)OCC1O (centres unmarked) [Compound 58, saponaceolide C]",antiproliferative effects,A549,strong antiproliferative effects
same,antiproliferative effects,Hep G2,strong antiproliferative effects
same,antiproliferative effects,Caki-1,strong antiproliferative effects
same,antiproliferative effects,MCF-7 [3],strong antiproliferative effects
same,antiproliferative effects,WISH,strong antiproliferative effects
same,Bioactivities: Cytotoxic against human cancer cell lines,human cancer cell lines,Cytotoxic against human cancer cell lines
"CC(C)C(C)C=CC(C)C1CCC2C3(O)C=CC4=CC(=O)CCC4(C)C3CCC12C (centres unmarked) [Compound 26, isocyathisterol]",IC50,SMMC-7721,< 40 µM
same,IC50,SW480,< 40 µM
same,Bioactivities: Anti-cancer activity,human tumor cell lines,Anti-cancer activity
same,IC50,HL-60,< 40 µM
same,IC50,A-549,< 40 µM
same,IC50,MCF-7 [2],< 40 µM
"COC(=O)C(NC(=O)CC(C)(O)CC(=O)OC1C(O)CC2(C)C3=C(CCC2C1(C)C)C1(C)CCC(C2CCC(C(C)(C)O)OC2O)C1(C)C(O)C3)C(OC(C)=O)c1ccccc1 (centres unmarked) [Compound 8, pardinol H]",Bioactivities: Anti-inflammatory activity,[1],Anti-inflammatory activity
same,Bioactivities: Anti-cancer activity,human tumor cell lines,Anti-cancer activity
"CCC(=O)C1=C(C(COC(C)=O)NC(=O)CCC(N)C(=O)O)C(OC(=O)CC(C)C)CC1OC (centres unmarked) [Compound 87, pardinumone D]",Bioactivities: Antibacterial activity,bacteria,Antibacterial activity
"COC(=O)C(NC(=O)CC(C)(O)CC(=O)OC1C(O)CC2(C)C3=C(CCC2C1(C)C)C1(C)CCC(C2CCC(C(C)(C)O)OC2O)C1(C)C(O)C3)C(O)c1ccccc1 (centres unmarked) [Compound 7, pardinol G]",Bioactivities: Anti-inflammatory activity,[1],Anti-inflammatory activity
same,Bioactivities: Anti-cancer activity,human tumor cell lines,Anti-cancer activity
"COC12CCC3(C)C(CCC3C(C)C=CC(C)C(C)C)C1=CC(=O)O2 (centres unmarked) [Compound 42, volemolide]",IC50,SMMC-7721,< 40 µM
same,IC50,SW480,< 40 µM
same,Bioactivities: Anti-cancer activity,human tumor cell lines,Anti-cancer activity
same,IC50,HL-60,< 40 µM
same,IC50,MCF-7 [2],< 40 µM
"CCC1(O)OCC(N2C(=O)CCC2OC)C2=C1C(OC)CC2OC(=O)CC(C)C (centres unmarked) [Compound 85, pardinumone B]",Bioactivities: Antibacterial activity,bacteria,Antibacterial activity
"C=C1CCC(CCC2CCC3(OC2)OC2(O)CCC3(C)OC2(C)C)C(C)(C)C1C(O)C=C1CCOC1=O (centres unmarked) [Compound 61, saponaceolide H]",antiproliferative effects,A549,strong antiproliferative effects
same,antiproliferative effects,Hep G2,strong antiproliferative effects
same,antiproliferative effects,Caki-1,strong antiproliferative effects
same,antiproliferative effects,MCF-7 [3],strong antiproliferative effects
same,antiproliferative effects,WISH,strong antiproliferative effects
same,Bioactivities: Cytotoxic against human cancer cell lines,human cancer cell lines,Cytotoxic against human cancer cell lines
same,cytotoxicity rank,"human cancer cell lines; among 55, 56, 58, 60, 61, cell line not specified",most significant cytotoxicity
"CCC1(O)OCC(N2C(=O)CCC2OC)C2=C1C(OC)CC2OC(=O)CC(C)C (centres unmarked) [Compound 84, pardinumone A]",Bioactivities: Antibacterial activity,bacteria,Antibacterial activity
"COC(=O)C(NC(=O)CC(C)(O)CC(=O)OC1CC2(C)C3=C(CCC2C(C)(C)C1O)C1(C)CCC(C(C)CCC(O)C(C)(C)O)C1(C)C(O)C3)C(OC(C)=O)c1ccccc1 (centres unmarked) [Compound 5, pardinol E]",Bioactivities: Anti-inflammatory activity,[1],Anti-inflammatory activity
same,Bioactivities: Anti-cancer activity,human tumor cell lines,Anti-cancer activity
"COC(=O)C(Cc1ccccc1)NC(=O)CC(C)(O)CC(=O)OC1C(O)CC2(C)C3=C(CCC2C1(C)C)C1(C)CCC(C(C)CCC(O)C(C)(C)O)C1(C)C(O)C3 (centres unmarked) [Compound 2, pardinol B]",IC50,SMMC-7721,< 40 µM
same,IC50,SW480,< 40 µM
same,Bioactivities: Anti-inflammatory activity,[1],Anti-inflammatory activity
same,Bioactivities: Anti-cancer activity,human tumor cell lines,Anti-cancer activity
same,IC50,HL-60,< 40 µM
same,IC50,A-549,< 40 µM
same,IC50,MCF-7 [2],< 40 µM
"CC(C)[C@@H](C)/C=C/[C@@H](C)[C@H]1CC(=O)C2=C3C(=O)C=C4C[C@@H](O)CC[C@]4(C)[C@H]3CC[C@@]21C [Compound 34, 3β-hydroxyl-(22E,24R)-ergosta-5,8(14),22-trien-7,15-dione]",Bioactivities: Anti-cancer activity,human tumor cell lines,Anti-cancer activity
"COC(=O)C(NC(=O)CC(C)(O)CC(=O)OC1C(O)CC2(C)C3=C(CCC2C1(C)C)C1(C)CCC(C(C)CCC(O)C(C)(C)O)C1(C)C(O)C3)C(OC(C)=O)c1ccccc1 (centres unmarked) [Compound 6, pardinol F]",Bioactivities: Anti-inflammatory activity,[1],Anti-inflammatory activity
same,Bioactivities: Anti-cancer activity,human tumor cell lines,Anti-cancer activity
"CC(C)[C@@H](C)/C=C/[C@@H](C)[C@H]1CC[C@H]2C3=C(CC[C@]12C)[C@@]1(C)CC[C@H](O)C[C@@]12O[C@H]2[C@@H]3O [Compound 35, 5α,6α-epoxy-(22E,24R)-ergosta-8,22-diene-3β,7β-diol]",Bioactivities: Anti-cancer activity,human tumor cell lines,Anti-cancer activity
"CC(C)[C@@H](C)/C=C/[C@@H](C)[C@H]1CC(=O)[C@H]2C3=C(CC[C@@]21C)[C@@]1(C)CC[C@H](O)CC1=CC3=O [Compound 29, 3β-hydroxyl-(22E,24R)-ergosta-5,8,22-trien-7,15-dione]",Bioactivities: Anti-cancer activity,human tumor cell lines,Anti-cancer activity
same,IC50,HL-60,< 10 µM
"CC(C)[C@@H](C)/C=C/[C@@H](C)[C@H]1CC[C@H]2C3=C(CC[C@]12C)[C@@]1(C)CC[C@H](O)CC1=CC3=O [Compound 30, 3β-hydroxyl-(22E,24R)-ergosta-5,8,22-trien-7-one]",Bioactivities: Anti-cancer activity,human tumor cell lines,Anti-cancer activity
same,IC50,HL-60,< 10 µM
"CC(C=CC(C)(O)C1CC(O)C2C3=CC(=O)OC3=CCC21C)C(C)(C)O (centres unmarked) [Compound 49, tricholosterol D]",IC50,[1],31.8 µM
same,Bioactivities: Anti-inflammatory activity,[1],Anti-inflammatory activity
"CC(C)C(C)C=CC(C)C1CCC2C3=CC(=O)OC3(O)CCC21C (centres unmarked) [Compound 41, demethylincisterol A3]",IC50,SMMC-7721,< 40 µM
same,IC50,SW480,< 40 µM
same,Bioactivities: Anti-cancer activity,human tumor cell lines,Anti-cancer activity
same,IC50,HL-60,< 40 µM
same,IC50,A-549,< 40 µM
same,IC50,MCF-7 [2],< 40 µM
"C=C(CCC(C)C1CCC2(C)C3=C(CC(O)C12C)C1(C)CCC(OC(=O)CC(=O)OC)C(C)(C)C1CC3)C(C)C(=O)O [Compound 16, (25S)-(+)-12α-hydroxy-3α-methylcarboxyacetate-24-methyllanosta-8,24(31)-diene-26-oic acid]",Bioactivities: Anti-cancer activity,human tumor cell lines,Anti-cancer activity
"CC=C1OCC(NC(=O)CCC(N)C(=O)O)C2=C1C(OC)CC2OC(=O)CC(C)C (centres unmarked) [Compound 86, pardinumone C]",Bioactivities: Antibacterial activity,bacteria,Antibacterial activity
"C=C1CC[C@@H](CCO)C(C)(C)[C@H]1C/C=C1/C(=O)OC[C@@H]1O [Compound 70, tricholopardin B]",IC50,[1],16.2 µM
same,Bioactivities: Anti-inflammatory activity,[1],Anti-inflammatory activity
